Experimental data from patent publication US8044103B2, “Cyclic dipeptides and azetidinone compounds and their use in treating CNS injury and neurodegenerative disorders” (Georgetown University, priority 1998, dated 2011).

Assays:
[1] = test system: mice following controlled cortical impact injury (CCI); experiment: Beam walking task after controlled cortical impact injury (chronic neurological recovery); format: in vivo, Male C57Bl/6 mice
Method: (§1) Male C57Bl/6 mice (20-25 g) were obtained from Taconic Farms (Germantown, N.Y.) and housed in an area directly adjoining surgical and behavioral rooms for at least 1 week prior to any procedures. All mice were maintained at a constant temperature (22±2° C.) and a 12 hr light/dark cycle, with lights on at 6 am and all behavioral testing performed during the light cycle. Food and water were available ad libitumn.
The injury device consisted of a microprocessor-controlled pneumatic impactor with a 3.5 mm diameter tip. The impactor is vertically mounted on a mill table (Sherline, USA) which allows for precise adjustment in the vertical plane above the mouse head, which itself is secured to a stereotaxic apparatus (David Kopf Instruments, CA) attached to the instrument. The core rod of a linear voltage differential transducer (LVDT, Serotec, USA) is attached to the lower end of the impactor to allow measurement of velocities between 3.0 and 9.0 m/s. Velocity of the impactor is controlled by fine tuning both positive and negative (back) air pressures. An oscilloscope (Tektronix, USA) records the time/displacement curve produced by the downward force on the LVDT, allowing precise measurement of the impactor velocity.
(§2) Surgical anesthesia was induced and maintained with 4% and 2% isoflurane respectively, using a flow rate of 1.0-1.5 l oxygen per minute. Depth of anesthesia was assessed by monitoring respiration rate and palpebral and pedal-withdrawal reflexes. The animal was then placed onto a heated pad and core body temperature was monitored and maintained at 38+/−0.2° C. The head was mounted in a stereotaxic frame and the surgical site clipped and prepared with a series of three Nolvasan scrubs followed by sterile saline rinses. A 10 mm mid-line incision was made over the skull, the skin and fascia reflected, and a 4 mm craniotomy made on the central aspect of the left parietal bone with a tissue punch (Roboz, USA). Great care was taken with the removal of the parietal bone to avoid injury to the underlying dura mater which was continuously bathed in sterile normal saline warmed to 37.5° C. The impounder tip of the pneumatic injury device was cleaned with a pad, soaked in absolute alcohol, positioned to the surface of the exposed dura and automatically withdrawn the 44 mm stroke distance. Following injury at a moderate (6.0 m/s velocity, 1 mm tissue deformation depth) level, the incision was closed with interrupted 6-0 silk sutures, anaesthesia was discontinued and the mouse was placed into a heated cage to maintain normothermia for 45 minutes post-injury. All animals were monitored carefully for at least 4 hours post-surgery and then daily. To minimize variation between animals due to anaesthesia during acute neurological testing, 20 minutes was allowed for surgery and 5 minutes for suturing for each animal.
Conscious mice were placed in a mouse restrainer and injected via the lateral tail vein with either normal saline (injured controls; n=6), 1 mg/kg Compound 2a (n=8), Compound 10b (n=6), Compound 11b (n=6) or Compound 14c (n=6) at 30 minutes following controlled cortical impact injury (CCI). The values for n represents the number of mice in the particular treatment group. The investigator was blinded to drug treatment both at the time of surgery and for neurological and behavioral scoring.
Chronic neurological recovery was evaluated for all animals using a beam walking task, a method which is particularly good at discriminating fine motor coordination differences between injured and sham-operated animals. The device consisted of a narrow wooden beam 6 mm wide and 120 mm in length which was suspended 300 mm above a 60 mm-thick foam rubber pad. The mouse was placed on one end of the beam and the number of footfaults for the right hindlimb recorded over 50 steps counted in either direction on the beam. A basal level of competence at this task was established before surgery with an acceptance level of <10 faults per 50 steps. […]

[2] = test system: mice following controlled cortical impact injury (CCI); experiment: Morris watermaze, place learning version, after controlled cortical impact injury; format: in vivo, Male C57Bl/6 mice
Method: as §1, §2
[…] The values for n represents the number of mice in the particular treatment group. The investigator was blinded to drug treatment both at the time of surgery and for neurological and behavioral scoring.
The Morris watermaze (Morris, 1984, J. Neurosci. Meth. 22:47-60) is employed to assess spatial learning by training mice to locate a hidden, submerged platform using extramaze visual information. The apparatus consists of a large, white circular pool (900 mm diameter, 500 mm high, water temperature 24±1° C.) with a plexiglass platform 76 mm diameter painted white and submerged 15 mm below the surface of water (225 mm high) which is rendered opaque with the addition of dilute, white, non-toxic paint. During training, the platform is hidden in one quadrant 14 cm from the side wall. The mouse is gently placed into the water facing the wall at one of four randomly-chosen locations separated by 90 degrees. The latency to find the hidden platform within a 90 second criterion time is recorded by a blinded observer. […]
Continuous variables compared across groups are examined using an analysis of variance (ANOVA) followed by Bonferroni correction (acute reflexes). Continuous variables subjected to repeated measurements over a period of time (beam walking, Morris water maze) are analyzed using a repeated measurements ANOVA followed by Tukey's pairwise comparison at each time point. […]

With `O=C1NC2(CCCCC2)C(=O)N2CCC[C@@H]12` [Compound 2a, Cyclo[(1-Amino-1-Cyclohexane-Carboxylic Acid)-Pro]] the “beam walking, time course of recovery of function” value ([1]; 1 mg/kg i.v. at 30 min following CCI) was “began to show some recovery of function after 3 days”, the “beam walking performance (right hindlimb footfaults) compared with saline-treated injured animals” value ([1]; 1 mg/kg i.v. at 30 min following CCI, 14 days following injury, p<0.05) was “significant improvement in performance” and the “beam walking outcome (right hindlimb footfaults) compared with saline-treated animals” value ([1]; 1 mg/kg i.v. at 30 min following CCI, 21 days post-injury, p<0.01) was “continued improvement in outcome”. The “dose with optimal effects in beam walking (inverted U-shaped dose-response curve)” value ([1]; 0.1, 1.0 or 10.0 mg/kg at 60 minutes following CCI) was 1 mg/kg, the “latency to find hidden platform (place learning) versus sham-operated controls, day 8” value ([2]; 1.0 mg/kg at 30 min following CCI, day 8, p<0.001) was “significantly different from sham-operated controls” and the “latency to find hidden platform (place learning) versus sham-operated controls, day 9” value ([2]; 1.0 mg/kg at 30 min following CCI, day 9 (third day of training), p>0.05, out-performing saline-treated) was “no longer significantly different from sham-operated controls”. For the same compound, the “latency to find goal platform (place learning) versus saline-treated injured mice, last day of training” value ([2]; 1.0 mg/kg at 30 min following CCI, day 10, p<0.01) was “significantly improved latencies”, the “place-learning compared with saline-treated controls (CCI+saline), dose-response experiments” value ([2]; 0.1, 1.0 or 10.0 mg/kg at 60 min following CCI, 10 days post-surgery, all treatment groups) was “improved place-learning” and the “dose giving the most improved learning (place learning watermaze)” value ([2]; 0.1, 1.0 or 10.0 mg/kg at 60 min following CCI, by 10 days post-surgery) was 10 mg/kg.
